Tests used:
[1] = system: NBT II cells; assay: In vitro wound assay (migration of NBT II cells); format: cell-based, rat
Experimental: FIGS. 1A and 1B show the migration of epithelial NBT II cells under varying conditions. […] Twenty-four hours after plating, the confluent cell monolayer was scratched as described in the Examples. EGF (100 ng/mL) or Ultroser G (2%) were added. Wound closure was documented by photography. The calibration bar indicates 80 pn. Migration Assays-For in vitro wound assays, NBT II cells were plated at a density of 7×10^4 cells/cm^2. After 24 hours the confluent monolayer was scratched with a pipette tip to create a cell free area, growth factors were added, and wound closure was documented by photography. For scatter assays, cells were plated at a cell density of 1×10^4 cells/cm^2. Growth factors were added after 24 hours, and the morphology of cells and the dispersion of small colonies were documented by photography. Quantification of migration was performed by counting single cells with fibroblastoid migration morphology compared to cells in groups with epithelial morphology in different, randomly chosen microscopic fields. 1000 cells per dish were counted. All migration assays were performed in triplicate. Tyrosine kinases (TK), mitogen-activated protein kinase (MAPK) or phosphatidylinositol-3-kinase (Pl3K), were inhibited by Genistein (250 μM; Biomol), added one hour before addition of the growth factors. As a control, the solvent DMSO was used. DNA synthesis was inhibited by the specific inhibitor of DNA polymerase, α Aphidicolin (1.5 μM; Serva) 1 hour before adding the growth factors. Migration of epithelial cells in tissue culture represents in many aspects a model system of the epithelial-mesenchymal transition ([…], et al. (1994) Int. Rev. Cytol. 155, 49-9). The rat bladder carcinoma cell line NBT II (Toyoshima, et al. (1971) J. Nat. Cancer Inst. 47, 979-985) was used, since certain growth factors and components of the extracellular matrix (ECM) induce migration of these cells (Valles, et al. (1990) Proc. Natl. Acad. Sci. USA 87, 1124-1128; Tchao, R. (1982) Cell Motil. 4, 333-341; Tucker, et al. (1990) Cancer Res. 50, 129-137).

[2] = system: NBT II cells; assay: Scatter assay of NBT II cells after EGF treatment; format: cell-based, rat; conditions: ectopic expression, about twice the PTP LAR expression of parental cells; EGF 100 ng/mL
Experimental: FIGS. 7A and 7B show a scatter assay of NBT II pLXSN and NBT II hPTP LAR cells. In FIG. 7A, NBT II cells infected with the empty vector pLXSN (left) or human PTP LAR (right) were plated at 1×10^4 cells/cm^2 and stimulated 24 h later with EGF (100 ng/mL) as indicated. After 7 h, the migration morphology was documented by photography.
To this end, 1000 cells per dish from randomly chosen microscopic fields were counted; assays were performed in triplicate. A cell was judged as a migrating cell when it had changed from a cobblestone-like, epithelial morphology to a migrating, fibroblastoid phenotype.
Migration Assays—For in vitro wound assays, NBT II cells were plated at a density of 7×10^4 cells/cm^2. After 24 hours the confluent monolayer was scratched with a pipette tip to create a cell free area, growth factors were added, and wound closure was documented by photography. For scatter assays, cells were plated at a cell density of 1×10^4 cells/cm^2. Growth factors were added after 24 hours, and the morphology of cells and the dispersion of small colonies were documented by photography. Quantification of migration was performed by counting single cells with fibroblastoid migration morphology compared to cells in groups with epithelial morphology in different, randomly chosen microscopic fields. 1000 cells per dish were counted. All migration assays were performed in triplicate. […]

[3] = system: NBT II cells; assay: Tumor formation in nude mice; format: in vivo, Swiss nude mice; conditions: NBT II hPTP LAR cells injected subcutaneously into flank, 2×10^6/50 μL
Experimental: NBT II cells, infected with the empty vector pLXSN (filled triangle) or human PTP LAR (filled square), were injected (2×10^6/50 μL) subcutaneously into the flank region of Swiss nude mice. Tumor formation was monitored.
Tumor formation in Nude Mice—NBT II cells were resuspended at a cell density of 2×10^6/50 μL in MEM and injected subcutaneously into the flank region of Swiss nude mice (IGR Villejuif, Paris, France). Tumor formation was monitored by measuring the width (W) and length (L) of the tumors with W<L. The tumor volume was calculated according to the formula (W^2×L×π/6). Assays were performed at least in triplicate.

[4] = system: free, uncomplexed β-catenin; assay: Affinity precipitation of free β-catenin with GST-E-cadherin cytoplasmic fusion protein; format: cell-based, rat; conditions: EGF 100 ng/mL
Experimental: NBT II cells were plated at a density of 1×10^4 cells/cm^2. Twenty-four hours later EGF (100 ng/mL) was added for the indicated time intervals. 30 minutes before lysis Na-orthovanadate (1 mM) was added. Subsequently affinity precipitations were performed with 5 μg of a GST/E-cadherin cytoplasmic protein or GST in a three-fold molar excess. Proteins were separated by SDS-PAGE, and the levels of free, uncomplexed β-catenin were analyzed by Western blotting with an anti-β-catenin-antibody (top). […] Note that in comparison to FIG. 2, cells were pretreated for only 30 minutes with Na-orthovanadate. Arrows indicate the proteins of interest. Molecular mass standards in kilodaltons are shown on the left.
NBT II cells infected with the empty vector pLXSN (left) or human PTP LAR (right) were plated at 1×10^4 cells/cm^2 and stimulated after 24 h with EGF (100 ng/mL) for the indicated time intervals. Na-orthovanadate pretreatment was omitted to avoid irreversible inhibition of protein tyrosine phosphatase activity. Cells were lysed and in vitro associations were performed with 5 μg of the GST-E-cadherin cytoplasmic protein or GST in a three-fold molar excess. Proteins were separated by SDS-PAGE, and the levels of free, uncomplexed β-catenin were analyzed by Western blotting with an anti-β-catenin antibody (top). […] Arrows indicate the proteins of interest. […]

[5] = system: NBT II cells; assay: DNA-synthesis and proliferation rate of NBT II-hPTP LAR cell lines; format: cell-based, rat; conditions: ectopic expression in NBT II cells
[6] = system: β-catenin and plakoglobin; assay: Tyrosine phosphorylation of β-catenin and plakoglobin in migrating NBT II cells (immunoprecipitation, Western blot); format: cell-based, rat; conditions: pretreatment with 1 mM Na-orthovanadate
Experimental: NBT II cells were plated at a density of 1×10^4 cells/cm^2. Twenty-four hours later growth factors were added to induce migration (EGF: 100 ng/mL; aFGF: 30 ng/mL including 50 μg/mL heparin; Ultroser G: 2%). Ninety minutes before lysis, Na-orthovanadate (1 mM) was added (right) or not (left). As a positive control, cells were treated for 10 minutes with pervanadate. After lysis the cadherin/catenin complex was immunoprecipitated and precipitates were separated by SDS-PAGE. Tyrosine phosphorylation levels were analyzed by Western blotting with an anti-phosphotyrosine antibody (top). The membranes were reprobed with specific antibodies to E-cadherin (middle) or the catenins (bottom) to assure equal amounts of precipitated proteins. Highly tyrosine phosphorylated β-catenin (as hereafter pervanadate treatment) was not efficiently immunodecorated in the reblot. Arrows indicate the proteins of interest. Molecular mass standards in kilodaltons are shown on the left.
Transient Expression, Cell Lysis, and Immunoprecipitation—Transient transfection of human 293 embryonic kidney cells was performed as described (Chen, et al. (1987) Mol. Cell. Biol. 7, 2745-2752, hereby incorporated herein by reference in its entirety, including any drawings, figures, or tables). For biochemical analysis, NBT II cells were plated at a density of 1×10^4 cells/cm^2 at the day before lysis. […]

[7] = inhibition of PI3K or MAPK, concentration not given

O=c1cc(N2CCOCC2)oc2c(-c3ccccc3)cccc12 [ly295002]
effect on cell migration (wound closure) [1, 7]: completely abolished cell migration

C[C@@]1(CO)[C@H](O)CC[C@@]2(C)[C@H]1CC[C@H]1C[C@@H]3C[C@@]12CC[C@]3(O)CO [Aphidicolin]
effect on cell migration (wound closure) ([1]; Aphidicolin 1.5 μM, added 1 hour before the growth factors, inhibition of DNA-synthesis): did not interfere with migration

hPTP LAR: full-length human PTP LAR ectopically expressed in NBT II cells by retroviral gene transfer (pLXSN)
EMT and motility relative to vector-control infected cell lines (NBT II pLXSN) [2]: about 40% | tumor growth in comparison to NBT II pLXSN cells [3]: significantly reduced tumor growth | tyrosine phosphorylation and increase of the free pool of β-catenin ([4]; NBT II-hPTP LAR-expressing cells, no Na-orthovanadate): neither tyrosine phosphorylation, nor an increase in the free pool of β-catenin were detectable | DNA-synthesis and proliferation rate [5]: not affected

[Na+].[Na+].[Na+].[O]=[V]([O-])([O-])[O-] [Na-orthovanadate]
tyrosine phosphorylation of β-catenin and plakoglobin [6]: increased tyrosine phosphorylation

O=c1c(-c2ccc(O)cc2)coc2cc(O)cc(O)c12 [Genistein]
effect on cell migration (wound closure) ([1]; Genistein 250 μM, added one hour before the growth factors, inhibition of tyrosine kinases): completely abolished cell migration

EGF: growth factor used to induce epithelial cell migration [reference compound]
free pool of β-catenin ([4]; NBT II cells): increase of the free pool of β-catenin

COc1cccc(-c2cc(=O)c3ccccc3o2)c1N [PD98059]
effect on cell migration (wound closure) [1, 7]: completely abolished cell migration
